Legend:
[1] = Batch hydroformylation of propylene in stirred autoclave (Examples 1, 2, 11, 14, 19)
Description: A series of various rhodium complex catalyst precursor solutions consisting essentially of the solubilized reaction product of rhodium dicarbonyl acetylacetonate and various monosulfonated triphenylphosphine metal salt ligands were prepared and employed to hydroformylate propylene into C4 aldehydes in the following manner.
(§1) Each rhodium catalytic precursor solution so prepared was then employed to hydroformylate propylene in a magnetically stirred, 100 mL capacity, stainless steel autoclave which was attached to a gas manifold for introducing gases to the desired partial pressures. The autoclave was also equipped with a pressure calibrator for determining reaction pressure to ±0.01 psia. and a platinum resistance thermometer for determining reactor solution temperatures to ±0.10° C. The reactor was heated externally by two 300 watt heating bands. The reactor solution temperature was controlled by a platinum resistance sensor connected to an external proportional temperature controller for controlling the temperature of the external band heaters.
In each non-aqueous hydroformylation reaction, about 15 milliliters (about 14 grams) of the rhodium catalytic precursor solution so prepared was charged to the autoclave reactor under nitrogen and heated to the reaction temperature employed (as given in Table 1 below). The reactor was then vented down to 5 psig. and a premixed gas mixture of 1:1:1 carbon monoxide:hydrogen:propylene was introduced into the reactor via the gas manifold (partial pressures given in Table 1) and the propylene so hydroformylated.
A comparison of the catalytic activity of aqueous and non-aqueous solutions of monosulfonated triphenylphosphine sodium salt ligand promoted catalysts in hydroformylating various molecular weight alphe-olefins was determined as follows.
Both the aqueous and non-aqueous hydroformylation reactions were conducted under identical conditions with regard to temperature, rhodium and ligand concentration, hydrogen and carbon monoxide partial pressure and olefin concentration.

[2] = Batch hydroformylation of hexene-1 (Example 14); conditions: Texanol/TPEG-990 3:1; 100° C.; 300 ppm Rh; 8.7 wt. % ligand; 75 psia 4:1 H2:CO
Description: as §1
(§2) In each non-aqueous hydroformylation reaction, about 15 milliliters (about 14 grams) of the rhodium catalytic precursor solution so prepared was charged to the autoclave reactor under nitrogen and heated to the reaction temperature employed (as given in Table 1 below). […]
(§3) The hydroformylation reaction rate in gram moles per liter per hour of C4 aldehydes produced was determined from sequential 5 psia. pressure drops in the reactor spanning the nominal operating pressure in the reactor, while the mole ratio of linear (n-butyraldehyde) to branched (2-methylpropionaldehyde) product was measured by gas chromatography and the results are given in Table 1 below. […]

[3] = Batch hydroformylation of tetradecene-1 (Example 14); conditions: Texanol/TPEG-990 3:1; 100° C.; 300 ppm Rh; 8.7 wt. % ligand; 75 psia 4:1 H2:CO
Description: as §1, §2, §3

[4] = Solubility of metal salt ligands in different aldehydes; type: physicochemical
[5] = Solubility of TPPMS-Na in nonanal with various added solubilizing agents; type: physicochemical
Description: The solubility of a monosulfonated triphenylphosphine sodium salt ligand (TPPMS-Na) having the formula [drawing 28] was measured in C9 aldehyde (nonanal) in the presence of various added solubilizing agents and various mixtures of such agents for the ligand. […] The solubilizing agents and their mixtures were employed in a 1:2 weight:weight ratio with the nonanal.

[6] = Solubility of TPPMS-Na in various aldehydes with solubilizing agent mixture; type: physicochemical; conditions: TERGITOL 24-L-75N/CARBOWAX TPEG-900 (4:1)
From the text: The solubilizing agent mixture was employed in a 1:2 weight:weight ratio with the various aldehydes.

[7] = HPLC analysis of ligand concentration in hydroformylation reaction mediums; type: physicochemical; conditions: both reactors, six days of operation
[8] = TERGITOL 15-S-3/CARBOWAX PEG 600/Dimethyl Sulfoxide (4:1:1), 100° C., 200 ppm Rh, 90 psia 1:1:1 H2:CO:C3H6
[9] = TERGITOL 15-S-7/CARBOWAX TPEG 990/N-Methyl Pyrolidone (4:1:1), 100° C., 200 ppm Rh, 90 psia 1:1:1 H2:CO:C3H6
[10] = TERGITOL 15-S-7, 100° C., 200 ppm Rh, 90 psia 1:1:1 H2:CO:C3H6
[11] = TERGITOL 24-L-75N/NIAX PPG 1025 (4:1), 100° C., 200 ppm Rh, 90 psia 1:1:1 H2:CO:C3H6
[12] = TERGITOL NP-4/CARBOWAX TPEG 990 (4:1), 100° C., 200 ppm Rh, 90 psia 1:1:1 H2:CO:C3H6
[13] = TERGITOL NP-9, 100° C., 200 ppm Rh, 90 psia 1:1:1 H2:CO:C3H6
[14] = Texanol/TPEG-990 3:1, 90° C., 300 ppm Rh, 8.7 wt. % ligand, 90 psia 1:1:1 H2:CO:C3H6
[15] = aqueous (water as solvent), 100° C., 300 ppm Rh, 90 psia 1:1:1 H2:CO:Propylene
[16] = non-aqueous (Texanol/Carbowax TPEG990 2.6:1), 100° C., 300 ppm Rh, 90 psia 1:1:1 H2:CO:Propylene

O=S(=O)([O-])c1cccc(P(c2ccccc2)c2ccccc2)c1.[Na+]
Linear/Branched Aldehyde Mole Ratio ([1]; 200 ppm Rh, about 120 mole equivalents ligand, 100° C., 60 psia 1:1:1 H2:CO:C3H6, Texanol/Carbowax PEG-600 10:1): 6.4 | Reaction Rate (C4 aldehydes) ([1]; 200 ppm Rh, about 120 mole equivalents ligand, 100° C., 60 psia 1:1:1 H2:CO:C3H6, Texanol/Carbowax PEG-600 10:1, average of two runs): 0.28 Gmoles/L/Hr | Linear/Branched Aldehyde Mole Ratio [1, 8]: 5.6 | Reaction Rate (C4 aldehydes) [1, 8]: 0.25 G moles/L/hr | Linear/Branched Aldehyde Mole Ratio [1, 9]: 5.0 | Reaction Rate (C4 aldehydes) [1, 9]: 0.75 G moles/L/hr | Linear/Branched Aldehyde Mole Ratio [1, 10]: 4.7 | Reaction Rate (C4 aldehydes) [1, 10]: 0.49 G moles/L/hr | Linear/Branched Aldehyde Mole Ratio [1, 11]: 5.3 | Reaction Rate (C4 aldehydes) [1, 11]: 0.54 G moles/L/hr | Linear/Branched Aldehyde Mole Ratio [1, 12]: 6.0 | Reaction Rate (C4 aldehydes) [1, 12]: 0.59 G moles/L/hr | Linear/Branched Aldehyde Mole Ratio [1, 13]: 5.1 | Reaction Rate (C4 aldehydes) [1, 13]: 0.67 G moles/L/hr | Linear/Branched Aldehyde Mole Ratio [1, 14]: 5.0 | Reaction Rate [1, 14]: 1.72 G moles/L/hr | Linear/Branched Aldehyde Mole Ratio [1, 15]: 19.3 | Reaction Rate [1, 15]: 0.07 G Moles/L/Hr | Linear/Branched Aldehyde Mole Ratio [1, 16]: 4.8 | Reaction Rate [1, 16]: 2.60 G Moles/L/Hr | Linear/Branched Aldehyde Mole Ratio [2]: 13.4 | Reaction Rate [2]: 5.21 G moles/L/hr | Linear/Branched Aldehyde Mole Ratio [3]: 12.6 | Reaction Rate [3]: 0.65 G moles/L/hr | Metal Salt Solubility ([4]; Butyraldehyde, 60 °C): 10.0 Wt. % | Metal Salt Solubility ([4]; Heptanal, 80 °C): 0.4 Wt. % | Metal Salt Solubility ([4]; Nonanal, 80 °C): 0.5 Wt. % | Metal Salt Solubility ([4]; Propionaldehyde, 35 °C): 16.3 Wt. % | Metal Salt Solubility ([4]; Tridecanal, 80 °C): 0.5 Wt. % | Metal Salt Solubility ([4]; Valeraldehyde, 80 °C): 5.3 Wt. % | TPPMS-Na Solubility ([5]; NIAX PPG-1025, 25 deg. C.): < 2 Weight Percent | TPPMS-Na Solubility ([5]; NIAX PPG-1025, 100 deg. C.): 2 Weight Percent | TPPMS-Na Solubility ([5]; TERGITOL 15-S-3/CARBOWAX PEG 600 (4:1), 25 deg. C.): 2 Weight Percent | TPPMS-Na Solubility ([5]; TERGITOL 15-S-3/CARBOWAX PEG 600 (4:1), 100 deg. C.): > 10 Weight Percent | TPPMS-Na Solubility ([5]; TERGITOL 15-S-3/CARBOWAX PEG 600/Methanol (4:1:1), 25 deg. C.): > 6 Weight Percent | TPPMS-Na Solubility ([5]; TERGITOL 15-S-3, 25 deg. C.): 2 Weight Percent | TPPMS-Na Solubility ([5]; TERGITOL 15-S-3, 100 deg. C.): 8 Weight Percent | TPPMS-Na Solubility ([5]; TERGITOL 15-S-7/CARBOWAX TPEG 990 (3:1), 25 deg. C.): 10 Weight Percent | TPPMS-Na Solubility ([5]; TERGITOL 15-S-7/CARBOWAX TPEG 990 (3:1), 100 deg. C.): 8 Weight Percent | TPPMS-Na Solubility ([5]; TERGITOL 15-S-7, 25 deg. C.): 4 Weight Percent | TPPMS-Na Solubility ([5]; TERGITOL 15-S-7, 100 deg. C.): 8 Weight Percent | TPPMS-Na Solubility ([5]; TERGITOL 24-L-15N, 25 deg. C.): 2 Weight Percent | TPPMS-Na Solubility ([5]; TERGITOL 24-L-15N, 100 deg. C.): 8 Weight Percent | TPPMS-Na Solubility ([5]; TERGITOL 24-L-50N/CARBOWAX PEG 600 (4:1), 25 deg. C.): > 10 Weight Percent | TPPMS-Na Solubility ([5]; TERGITOL 24-L-50N/CARBOWAX PEG 600 (4:1), 100 deg. C.): > 10 Weight Percent | TPPMS-Na Solubility ([5]; TERGITOL 24-L-50N, 25 deg. C.): 4 Weight Percent | TPPMS-Na Solubility ([5]; TERGITOL 24-L-50N, 100 deg. C.): 8 Weight Percent | TPPMS-Na Solubility ([5]; TERGITOL 24-L-75N/CARBOWAX TPEG 990 (4:1), 25 deg. C.): 12 Weight Percent | TPPMS-Na Solubility ([5]; TERGITOL 24-L-75N/CARBOWAX TPEG 990 (4:1), 100 deg. C.): 14 Weight Percent | TPPMS-Na Solubility ([5]; TERGITOL 24-L-75N/CARBOWAX TPEG 990/Methanol (4:1:1), 25 deg. C.): > 16 Weight Percent | TPPMS-Na Solubility ([5]; TERGITOL 24-L-75N/NIAX PPG 1025 (2:1), 25 deg. C.): > 10 Weight Percent | TPPMS-Na Solubility ([5]; TERGITOL 24-L-75N/NIAX PPG 1025 (2:1), 100 deg. C.): > 10 Weight Percent | TPPMS-Na Solubility ([5]; TERGITOL 24-L-75N, 25 deg. C.): 6 Weight Percent | TPPMS-Na Solubility ([5]; TERGITOL 24-L-75N, 100 deg. C.): 8 Weight Percent | TPPMS-Na Solubility ([5]; TERGITOL 25-L-5, 25 deg. C.): 4 Weight Percent | TPPMS-Na Solubility ([5]; TERGITOL 25-L-5, 100 deg. C.): 6 Weight Percent | TPPMS-Na Solubility ([5]; TERGITOL 26-L-5, 25 deg. C.): 2 Weight Percent | TPPMS-Na Solubility ([5]; TERGITOL 26-L-5, 100 deg. C.): 6 Weight Percent | TPPMS-Na Solubility ([5]; TERGITOL NP-4/CARBOWAX TPEG 990 (4:1), 25 deg. C.): 8 Weight Percent | TPPMS-Na Solubility ([5]; TERGITOL NP-4/CARBOWAX TPEG 990 (4:1), 100 deg. C.): 10 Weight Percent | TPPMS-Na Solubility ([5]; TERGITOL NP-4, 25 deg. C.): 2 Weight Percent | TPPMS-Na Solubility ([5]; TERGITOL NP-4, 100 deg. C.): 6 Weight Percent | TPPMS-Na Solubility ([5]; TERGITOL NP-9/CARBOWAX PEG 600 (3:1), 25 deg. C.): 10 Weight Percent | TPPMS-Na Solubility ([5]; TERGITOL NP-9/CARBOWAX PEG 600 (3:1), 100 deg. C.): > 10 Weight Percent | TPPMS-Na Solubility ([5]; TERGITOL NP-9/CARBOWAX PEG 600/Methanol (3:1:1), 25 deg. C.): > 12 Weight Percent | TPPMS-Na Solubility ([5]; TERGITOL NP-9, 25 deg. C.): 4 Weight Percent | TPPMS-Na Solubility ([5]; TERGITOL NP-9, 100 deg. C.): 6 Weight Percent | TPPMS-Na Solubility at 25 deg. C. ([6]; Butyraldehyde): > 20 Weight Percent | TPPMS-Na Solubility at 25 deg. C. ([6]; Heptanal): 18 Weight Percent | TPPMS-Na Solubility at 25 deg. C. ([6]; Nonanal): 12 Weight Percent | TPPMS-Na Solubility at 25 deg. C. ([6]; Tridecanal): 8 Weight Percent | TPPMS-Na Solubility at 25 deg. C. ([6]; Valeraldehyde): > 20 Weight Percent | change in ligand concentration of reaction mediums [7]: no significant change
